For the assay, the system named is miR-124. Kind of assay: Induction of miR-124 expression in PBMC cells (qPCR). In kind it is cell-based. The settings on record: Homo sapiens, 72 h, 0.1 μM compound, human PBMCs stimulated with PMA/ionomycin, miR-191 reference gene, read-out: miR-124 expression, Fold change vs DMSO. Here is the method:
This study evaluated the ability of the compound of the present invention to influence miR-124 transcriptional activity in vitro. The experiment analyzed miR-124 expression in human PBMCs (Sailybio) using quantitative PCR (qPCR).
Thawed human PBMCs (1 mL) were added to 19 mL of culture medium (RPMI1640+10% hFBS+1‰ 2-mercaptoethanol) and the PBMCs were incubated in a cell culture incubator for 30 minutes. The PBMCs were collected and the cells (3.0*10^6 cells/well/3 mL) were resuspended in medium containing PMA (10 ng/mL; Invivogen) and ionomycin (200 ng/mL; Invivogen). The cells were incubated in a 6-well plate for 48 hours. Diluted compound was added to the cells to achieve a final concentration of 0.1 μM. After 72 hours, the samples were centrifuged and the cells were collected.
Total miRNA was extracted from the cells using the MiPure Cell/Tissue miRNA Kit (Vazyme) according to the manufacturer's instructions, followed by purification. The purified samples were treated with genomic DNA elimination buffer, and reverse transcription was performed using a GeneAmp PCR System. The resulting cDNA was subjected to quantitative real-time PCR (qPCR) analysis on a QuantStudio™ 7 Flex Real-Time PCR System. Data analysis was performed using the QuantStudio 7 software with default settings to automatically determine Ct values, and the results were exported. In this assay, miR-191 was used as the reference gene, and the DMSO-treated group served as the control. The relative expression of miR-124 was calculated using the following formula: […]
On to `Fc1cc(Cl)cc2nc(Nc3ccc(C(F)(F)F)cc3)c3nccn3c12` [Compound B90, 7-chloro-9-fluoro-N-(4-(trifluoromethyl)phenyl) imidazolo[1,2-a] quinoxalin-4-amine], for which the fold induction at 0.1 µM worked out at 24.9. As to `Fc1cc(Nc2nc3cc(Cl)cc(F)c3n3ccnc23)ccc1C(F)(F)F` [Compound B91, 7-chloro-9-fluoro-N-(3-fluoro-4-(trifluoromethyl)phenyl) imidazolo[1,2-a] quinoxalin-4-amine], the fold induction at 0.1 µM is 25.7. With `Fc1cc(Cl)cc2nc(Nc3ccc(C(F)(F)F)c(Cl)c3)c3nccn3c12` [Compound B92, 7-chloro-9-fluoro-N-(3-chloro-4-(trifluoromethyl)phenyl) imidazolo[1,2-a] quinoxalin-4-amine], the fold induction at 0.1 µM came out at 27.1.

Take `FC1(F)Oc2ccc(Nc3nc4cc(Cl)cc(Cl)c4n4ccnc34)cc2O1` [Compound B93, 7,9-dichloro-N-(2,2-difluorobenzo [d][1,3]dihydroxy-5-yl) imidazolo[1,2-a] quinoxalin-4-amine]: the fold induction at 0.1 µM turned out to be 19.1. As to `Fc1cc(Nc2nc3cc(Cl)cc(Cl)c3n3ccnc23)ccc1OC(F)(F)F` [Compound B94, 7,9-dichloro-N-(3-fluoro-4-(trifluoromethoxy)phenyl) imidazolo[1,2-a] quinoxalin-4-amine], the fold induction at 0.1 µM was determined as 26.4. With `FC(F)(F)Oc1ccc(Nc2nc3cc(Cl)cc(Cl)c3n3ccnc23)cc1Cl` [Compound B95, 7,9-dichloro-N-(3-chloro-4-(trifluoromethoxy)phenyl) imidazolo[1,2-a] quinoxalin-4-amine], the fold induction at 0.1 µM is 24.8. For the compound `FC(F)(F)c1ccc(Nc2nc3cc(Cl)cc(Cl)c3n3ccnc23)cc1` [Compound B96, 7,9-dichloro-N-(4-(trifluoromethyl)phenyl) imidazolo[1,2-a] quinoxalin-4-amine], the fold induction at 0.1 µM came out at 23.2. Turning to `FC(F)(F)c1ccc(Nc2nc3cc(Cl)cc(Cl)c3n3ccnc23)cc1Cl` [Compound B98, 7,9-dichloro-N-(3-chloro-4-(trifluoromethyl)phenyl) imidazolo[1,2-a] quinoxalin-4-amine], the fold induction at 0.1 µM turned out to be 22.9. To `FC(F)(F)Sc1ccc(Nc2nc3cc(Cl)cc(Cl)c3n3ccnc23)cc1` [Compound B99, 7,9-dichloro-N-(4-(trifluoromethylthio)phenyl) imidazolo[1,2-a] quinoxalin-4-amine] belongs 17.6; to `FC1(F)Oc2ccc(Nc3nc4ccc(Cl)cc4n4ccnc34)cc2O1` [Compound B100, 8-chloro-N-(2,2-difluorobenzo [d][1,3]dihydroxy-5-yl) imidazolo[1,2-a] quinoxalin-4-amine], 19.6; to `Fc1cc(Nc2nc3ccc(Cl)cc3n3ccnc23)ccc1OC(F)(F)F` [Compound B101, 8-chloro-N-(3-fluoro-4-(trifluoromethoxy)phenyl) imidazolo[1,2-a] quinoxalin-4-amine], 24.7.

`FC(F)(F)Oc1ccc(Nc2nc3ccc(Cl)cc3n3ccnc23)cc1Cl` [Compound B102, 8-chloro-N-(3-chloro-4-(trifluoromethoxy)phenyl) imidazolo[1,2-a] quinoxalin-4-amine]: the fold induction at 0.1 µM was determined as 27.3. For `FC(F)(F)c1ccc(Nc2nc3ccc(Cl)cc3n3ccnc23)cc1` [Compound B103, 8-chloro-N-(4-(trifluoromethyl)phenyl) imidazolo[1,2-a] quinoxalin-4-amine], the fold induction at 0.1 µM is 25.5. As to `Fc1cc(Nc2nc3ccc(Cl)cc3n3ccnc23)ccc1C(F)(F)F` [Compound B104, 8-chloro-N-(3-fluoro-4-(trifluoromethyl)phenyl) imidazolo[1,2-a] quinoxalin-4-amine], the fold induction at 0.1 µM came out at 28.1.

For the compound `FC(F)(F)c1ccc(Nc2nc3ccc(Cl)cc3n3ccnc23)cc1Cl` [Compound B105, 8-chloro-N-(3-chloro-4-(trifluoromethyl)phenyl) imidazolo[1,2-a] quinoxalin-4-amine], the fold induction at 0.1 µM was 27.8.

Consider `FC1(F)Oc2ccc(Nc3nc4cc(Cl)ccc4n4ccnc34)cc2O1` [Compound B106, 7-chloro-N-(2,2-difluorobenzo[d] [1,3]dihydroxy-5-yl) imidazolo[1,2-a] quinoxalin-4-amine], for which the fold induction at 0.1 µM was 16.3.

In the case of `Fc1cc(Nc2nc3cc(Cl)ccc3n3ccnc23)ccc1OC(F)(F)F` [Compound B107, 7-chloro-N-(3-fluoro-4-(trifluoromethoxy)phenyl) imidazolo[1,2-a] quinoxalin-4-amine], the fold induction at 0.1 µM was 24.4. For `FC(F)(F)c1ccc(Nc2nc3cc(Cl)ccc3n3ccnc23)cc1` [Compound B109, 7-chloro-N-(4-(trifluoromethyl)phenyl) imidazolo[1,2-a] quinoxalin-4-amine], the fold induction at 0.1 µM turned out to be 26.4.

For the compound `Fc1cc(Nc2nc3cc(Cl)ccc3n3ccnc23)ccc1C(F)(F)F` [Compound B110, 7-chloro-N-(3-fluoro-4-(trifluoromethyl)phenyl) imidazolo[1,2-a] quinoxalin-4-amine], the fold induction at 0.1 µM is 25.5. In the case of `FC(F)(F)c1ccc(Nc2nc3cc(Cl)ccc3n3ccnc23)cc1Cl` [Compound B111, 7-chloro-N-(3-chloro-4-(trifluoromethyl)phenyl) imidazolo[1,2-a] quinoxalin-4-amine], the fold induction at 0.1 µM worked out at 22.5. Turning to `Fc1cc(NC2=Nc3cccc(Cl)c3N3CCN=C23)ccc1OC(F)(F)F` [Compound B119, 9-chloro-N-(3-fluoro-4-(trifluoromethoxy)phenyl)-1,2-dihydroimidazo[1,2-a] quinoxalin-4-amine], the fold induction at 0.1 µM came out at 25.4.

Consider `FC(F)(F)Oc1ccc(NC2=Nc3cccc(Cl)c3N3CCN=C23)cc1Cl` [Compound B120, 9-chloro-N-(3-chloro-4-(trifluoromethoxy)phenyl)-1,2-dihydroimidazo[1,2-a] quinoxalin-4-amine], for which the fold induction at 0.1 µM came out at 22.6. As to `Fc1cc(NC2=Nc3cccc(Cl)c3N3CCN=C23)ccc1C(F)(F)F` [Compound B122, 9-chloro-N-(3-fluoro-4-(trifluoromethyl)phenyl)-1,2-dihydroimidazo[1,2-a] quinoxalin-4-amine], the fold induction at 0.1 µM came out at 27.3. For the compound `FC(F)(F)c1ccc(NC2=Nc3cccc(Cl)c3N3CCN=C23)cc1Cl` [Compound B123, 9-chloro-N-(3-chloro-4-(trifluoromethyl)phenyl)-1,2-dihydroimidazo[1,2-a] quinoxalin-4-amine], the fold induction at 0.1 µM was determined as 24.3. For `Fc1cc(Cl)cc2c1N1CCN=C1C(Nc1ccc(OC(F)(F)F)cc1)=N2` [Compound B130, 7-chloro-9-fluoro-N-(4-(trifluoromethoxy)phenyl)-1,2-dihydroimidazo[1,2-a] quinoxalin-4-amine], the fold induction at 0.1 µM amounted to 25.6. For the compound `Fc1cc(NC2=Nc3cc(Cl)cc(F)c3N3CCN=C23)ccc1OC(F)(F)F` [Compound B131, 7-chloro-9-fluoro-N-(3-fluoro-4-(trifluoromethoxy)phenyl)-1,2-dihydroimidazo[1,2-a] quinoxalin-4-amine], the fold induction at 0.1 µM came to 27. On to `Fc1cc(Cl)cc2c1N1CCN=C1C(Nc1ccc(OC(F)(F)F)c(Cl)c1)=N2` [Compound B132, 7-chloro-N-(3-chloro-4-(trifluoromethoxy)phenyl)-9-fluoro-1,2-dihydroimidazo[1,2-a] quinoxalin-4-amine], for which the fold induction at 0.1 µM amounted to 27.6. For the compound `Fc1cc(Cl)cc2c1N1CCN=C1C(Nc1ccc(C(F)(F)F)cc1)=N2` [Compound B133, 7-chloro-9-fluoro-N-(4-(trifluoromethyl)phenyl)-1,2-dihydroimidazo[1,2-a] quinoxalin-4-amine], the fold induction at 0.1 µM is 26.3. As for `Fc1cc(NC2=Nc3cc(Cl)cc(F)c3N3CCN=C23)ccc1C(F)(F)F` [Compound B134, 7-chloro-9-fluoro-N-(3-fluoro-4-(trifluoromethyl)phenyl)-1,2-dihydroimidazo[1,2-a] quinoxalin-4-amine], the fold induction at 0.1 µM is 27.5.

Consider `Fc1cc(Cl)cc2c1N1CCN=C1C(Nc1ccc(C(F)(F)F)c(Cl)c1)=N2` [Compound B135, 7-chloro-N-(3-chloro-4-(trifluoromethyl)phenyl)-9-fluoro-1,2-dihydroimidazo[1,2-a] quinoxalin-4-amine], for which the fold induction at 0.1 µM is 24.9. For the compound `FC(F)(F)Oc1ccc(NC2=Nc3cc(Cl)cc(Cl)c3N3CCN=C23)cc1` [Compound B136, 7,9-dichloro-N-(4-(trifluoromethoxy)phenyl)-1,2-dihydroimidazo[1,2-a] quinoxalin-4-amine], the fold induction at 0.1 µM is 34.1. As for `Fc1cc(NC2=Nc3cc(Cl)cc(Cl)c3N3CCN=C23)ccc1OC(F)(F)F` [Compound B137, 7,9-dichloro-N-(3-fluoro-4-(trifluoromethoxy)phenyl)-1,2-dihydroimidazo[1,2-a] quinoxalin-4-amine], the fold induction at 0.1 µM was 31.1. As for `FC(F)(F)Oc1ccc(NC2=Nc3cc(Cl)cc(Cl)c3N3CCN=C23)cc1Cl` [Compound B138, 7,9-dichloro-N-(3-chloro-4-(trifluoromethoxy)phenyl)-1,2-dihydroimidazo[1,2-a] quinoxalin-4-amine], the fold induction at 0.1 µM amounted to 29.9.

The values are drawn from patent US20260232662A1, “MIR-124 INDUCER, AND PREPARATION METHOD THEREFOR AND USE THEREOF” (NANJING SYNNOCARE PHARMACEUTICAL TECHNOLOGY CO., LTD., priority 2023, published 2026).
